Where a name gives a salt, the structure may show the parent alone. Read-outs that look alike come from different tables or passages of the source.
Experiments:
5HT1D receptor = experiment: Inhibition of 3H-serotonin binding to 5HT1D receptor; set-up: species or system male Sprague-Dawley rats; details: rat brain membranes, 25 °C, 30 min, pH 7.4, read-out: Inhibition of Radioligand Binding to 5HT Receptor 1D (IC50)
Experimental: (§1) Radioactivity was measured with a liquid scintillation spectrometer.

5HT1A receptor = target: T1, 5HT1A receptor (Rattus norvegicus, UniProt P19327); experiment: Inhibition of 3H-8-hydroxy-2-(di-n-propylamino)tetralin binding to 5HT1A receptor; set-up: species or system male Sprague-Dawley rats
T1 construct: membranes isolated from bovine choroid plexus (for 5HT1.sbsb.c) or rat brain; from tissue
T1 sequence (P19327 1-422): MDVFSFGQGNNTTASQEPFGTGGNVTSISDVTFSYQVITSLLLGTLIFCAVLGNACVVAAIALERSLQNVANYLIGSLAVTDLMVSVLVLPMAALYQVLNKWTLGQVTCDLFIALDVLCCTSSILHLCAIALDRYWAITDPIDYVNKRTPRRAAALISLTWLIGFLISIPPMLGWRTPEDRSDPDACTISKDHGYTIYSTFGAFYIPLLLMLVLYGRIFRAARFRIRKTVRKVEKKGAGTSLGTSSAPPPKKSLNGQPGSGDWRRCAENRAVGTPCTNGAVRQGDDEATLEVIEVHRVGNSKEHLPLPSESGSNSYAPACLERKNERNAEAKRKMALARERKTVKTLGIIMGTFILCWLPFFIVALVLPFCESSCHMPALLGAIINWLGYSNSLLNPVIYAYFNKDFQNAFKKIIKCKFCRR
Experimental: as §1

5HT1B receptor = target: T2, 5HT1B receptor (Rattus norvegicus, UniProt P28564); experiment: Inhibition of 3H-serotonin binding to 5HT1B receptor; set-up: species or system male Sprague-Dawley rats
T2 construct: membranes isolated from bovine choroid plexus (for 5HT1.sbsb.c) or rat brain; from tissue
T2 sequence (P28564 whole entry): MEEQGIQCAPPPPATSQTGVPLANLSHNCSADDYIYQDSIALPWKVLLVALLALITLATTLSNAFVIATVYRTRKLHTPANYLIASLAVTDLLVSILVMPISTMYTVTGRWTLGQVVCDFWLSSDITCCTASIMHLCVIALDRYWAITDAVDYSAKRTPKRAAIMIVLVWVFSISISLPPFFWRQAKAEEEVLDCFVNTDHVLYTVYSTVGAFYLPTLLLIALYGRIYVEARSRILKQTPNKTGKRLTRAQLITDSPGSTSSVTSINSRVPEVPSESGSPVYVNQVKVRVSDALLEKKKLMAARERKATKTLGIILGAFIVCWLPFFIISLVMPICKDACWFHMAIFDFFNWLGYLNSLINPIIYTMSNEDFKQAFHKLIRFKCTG
Experimental: as §1

5HT1C receptor = target: T3, 5HT1C receptor (Bos taurus, UniProt A0AAA9SBU1); experiment: Inhibition of 3H-mesulergine binding to 5HT1C receptor
T3 sequence (A0AAA9SBU1 33-457): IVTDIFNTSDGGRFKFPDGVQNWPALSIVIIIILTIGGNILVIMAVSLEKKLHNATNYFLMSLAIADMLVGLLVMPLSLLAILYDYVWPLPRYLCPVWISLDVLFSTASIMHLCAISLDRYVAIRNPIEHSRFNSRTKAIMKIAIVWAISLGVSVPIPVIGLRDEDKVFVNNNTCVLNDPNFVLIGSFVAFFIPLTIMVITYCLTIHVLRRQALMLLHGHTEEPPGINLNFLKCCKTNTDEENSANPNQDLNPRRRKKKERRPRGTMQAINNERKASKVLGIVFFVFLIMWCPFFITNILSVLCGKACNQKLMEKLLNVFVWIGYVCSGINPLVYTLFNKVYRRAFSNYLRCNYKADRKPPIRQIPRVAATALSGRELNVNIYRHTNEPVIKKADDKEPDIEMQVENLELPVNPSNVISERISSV
Experimental: as §1

5HT2 receptor = 5HT2 receptor (Rattus norvegicus, UniProt P14842); experiment: biochemical
5HT2 receptor, sequence (P14842 whole entry): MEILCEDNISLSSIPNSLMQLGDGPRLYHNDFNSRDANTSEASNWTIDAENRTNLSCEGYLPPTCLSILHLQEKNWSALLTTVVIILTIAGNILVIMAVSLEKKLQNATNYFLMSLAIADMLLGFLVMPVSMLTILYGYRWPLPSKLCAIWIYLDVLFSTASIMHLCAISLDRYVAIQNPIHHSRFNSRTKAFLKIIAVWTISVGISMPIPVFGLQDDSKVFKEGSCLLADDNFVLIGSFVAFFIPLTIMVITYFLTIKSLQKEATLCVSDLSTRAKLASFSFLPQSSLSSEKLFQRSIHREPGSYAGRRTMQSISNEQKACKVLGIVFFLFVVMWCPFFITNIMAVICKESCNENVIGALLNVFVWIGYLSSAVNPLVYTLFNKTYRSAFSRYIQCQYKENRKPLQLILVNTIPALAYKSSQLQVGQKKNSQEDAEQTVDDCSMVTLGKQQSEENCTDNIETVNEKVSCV
Experimental: Binding was terminated by filtering samples under reduced pressure through glass fiber (GFB) filters. […] Radioactivity was measured with a liquid scintillation spectrometer.

For `CC(=O)N[C@H]1CC[C@H](NC(=O)[C@@H]2C[C@@H]3c4cccc5c4c(cn5C(C)C)C[C@H]3N(C)C2)CC1` (relative stereo) [Example 1, (8β)-N-(trans-4-acetamidocyclohexyl)-1-isopropyl-6-methylergoline-8-carboxamide], the IC50 (5HT1D receptor) was 198 nM, the IC50 (5HT1A receptor; rat brain membranes, 3H-8-hydroxy-2-(di-n-propylamino)tetralin, 25 °C, 30 min, pH 7.4, read-out: Inhibition of Radioligand Binding to 5HT Receptor 1A (IC50)) was 2310 nM and the IC50 (5HT1B receptor; rat brain membranes, 3H-serotonin, 25 °C, 30 min, pH 7.4, read-out: Inhibition of Radioligand Binding to 5HT Receptor 1B (IC50)) was greater than 1000 nM. It also gave an IC50 (5HT1C receptor; read-out: Inhibition of Radioligand Binding to 5HT Receptor 1C (IC50); bovine choroid plexus membranes; 2 nM 3H-mesulergine; 25 °C, 30 min, pH 7.4) of 18 nM and an IC50 (5HT2 receptor) of 31 nM.

Compound `CC(C)n1cc2c3c(cccc31)[C@H]1C[C@@H](C(=O)N[C@H]3CC[C@H](NS(C)(=O)=O)CC3)CN(C)[C@@H]1C2` (relative stereo) [Example 2, (8β)-N-(trans-4-methylsulfonamidocyclohexyl)-1-isopropyl-6-methylergoline-8-carboxamide maleate] has an IC50 (5HT1D receptor) of 276 nM, an IC50 (5HT1A receptor) of 2650 nM and an IC50 (5HT1B receptor) of 489 nM. The IC50 (5HT1C receptor; bovine choroid plexus membranes; 2 nM 3H-mesulergine; 25 °C, 30 min, pH 7.4; read-out: Inhibition of Radioligand Binding to 5HT Receptor 1C (IC50)) was 22 nM and the IC50 (5HT2 receptor) was 23 nM.

Source: patent US5739146A, “Substituted cyclo or bicycloalkylamides of (8β)-6-(substituted) ergolines” (Eli Lilly and Company, priority 1995, dated 1998)
